{"source": "patent US20050209336A1", "about": "“EP2 receptor agonists” (priority 2003, published 2005)", "key": {"[1]": {"biological_target": "T1, human EP2 receptor (Homo sapiens, UniProt P43116)", "T1 construct": "expressed in transfected cells; host or cells: HEK cells (HEK-EP2)", "T1 sequence (P43116 whole entry)": "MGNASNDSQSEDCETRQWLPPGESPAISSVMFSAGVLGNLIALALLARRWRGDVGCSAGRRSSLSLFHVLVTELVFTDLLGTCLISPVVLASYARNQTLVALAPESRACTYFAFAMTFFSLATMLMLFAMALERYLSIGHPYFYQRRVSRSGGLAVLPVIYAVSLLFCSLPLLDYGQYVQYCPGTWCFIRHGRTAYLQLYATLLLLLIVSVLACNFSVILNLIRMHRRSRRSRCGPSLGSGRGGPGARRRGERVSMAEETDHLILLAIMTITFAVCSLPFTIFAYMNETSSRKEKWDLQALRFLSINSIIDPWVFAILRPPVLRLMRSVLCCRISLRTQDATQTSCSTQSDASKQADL", "assay": "Radioligand ([3H]PGE2) competition displacement binding, human EP2 receptor membranes", "conditions": "for Ki: human EP2 membranes, [3H]PGE2 displacement, Cheng-Prusoff, mean of 4 experiments, read-out: pKi EP2 (converted)", "protocol": "(§1) Membranes were prepared from cells stably transfected with human EP receptor cDNA. In brief, cells were cultured to confluency, scraped from culture flasks, and centrifuged (800 g, 8 minutes, 4° C.). Cells were twice washed in ice cold homogenisation buffer containing 10 mMTris-HCl, 1 mM EDTA.2Na, 250 mM sucrose, 1 mM PMSF, 0.3 mM indomethacin, pH 7.4, homogenised and re-centrifuged as before. The supernatant was stored on ice and pellets re-homogenised and re-spun. Supernatants were pooled and centrifuged at 40000 g, 10 minutes, 4° C. Resultant membrane pellets were stored at −80° C. until use.\n(§2) For assay, membranes expressing human EP4, EP3, EP2 or EP1 receptors were incubated in Millipore (MHVBN45) plates containing assay buffer, radiolabelled [^3H]PGE2 and 0.1 to 10 000 nM concentrations of compounds. Incubations were performed at suitable temperatures and for suitable times to allow equilibrium to be reached. Non-specific binding was determined in the presence of 10 uM PGE2. Bound and free radiolabel was separated by vacuum manifold filtration using appropriate wash buffers, and bound radiolabel was determined by scintillation counting. Constituents of each of the buffers are included in table 4 below.\n(§3) The affinity or pKi of each compound for each receptor was calculated from the concentration causing 50% radioligand displacement (IC50) using the Cheng-Prusoff equation: [formula]\n(§4) This approach follows that set out in Kenakin, T. P., Pharmacologic analysis of drug receptor interaction. Raven Press, New York, 2nd edition."}, "[2]": {"biological_target": "T2, human EP3 receptor (Homo sapiens, UniProt P43115)", "T2 construct": "expressed in transfected cells", "T2 sequence (P43115 1-390)": "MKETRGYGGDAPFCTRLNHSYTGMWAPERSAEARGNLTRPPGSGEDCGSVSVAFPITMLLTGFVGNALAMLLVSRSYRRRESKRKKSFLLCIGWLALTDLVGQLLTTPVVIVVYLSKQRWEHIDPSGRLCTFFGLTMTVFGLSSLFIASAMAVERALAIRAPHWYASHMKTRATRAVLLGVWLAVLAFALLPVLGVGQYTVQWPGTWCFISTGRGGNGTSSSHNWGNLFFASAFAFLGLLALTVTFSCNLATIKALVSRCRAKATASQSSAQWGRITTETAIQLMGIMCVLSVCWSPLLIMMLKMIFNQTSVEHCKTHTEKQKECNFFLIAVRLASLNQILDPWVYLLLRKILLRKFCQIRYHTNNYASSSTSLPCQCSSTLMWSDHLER", "assay": "Radioligand ([3H]PGE2) competition displacement binding, human EP3 receptor membranes", "conditions": "[3H]PGE2 displacement, read-out: pKi EP3 (converted)", "protocol": "as §1, §2, §3, §4"}, "[3]": {"biological_target": "T3, human EP4 receptor (Homo sapiens, UniProt P35408)", "T3 construct": "expressed in transfected cells", "T3 sequence (P35408 whole entry)": "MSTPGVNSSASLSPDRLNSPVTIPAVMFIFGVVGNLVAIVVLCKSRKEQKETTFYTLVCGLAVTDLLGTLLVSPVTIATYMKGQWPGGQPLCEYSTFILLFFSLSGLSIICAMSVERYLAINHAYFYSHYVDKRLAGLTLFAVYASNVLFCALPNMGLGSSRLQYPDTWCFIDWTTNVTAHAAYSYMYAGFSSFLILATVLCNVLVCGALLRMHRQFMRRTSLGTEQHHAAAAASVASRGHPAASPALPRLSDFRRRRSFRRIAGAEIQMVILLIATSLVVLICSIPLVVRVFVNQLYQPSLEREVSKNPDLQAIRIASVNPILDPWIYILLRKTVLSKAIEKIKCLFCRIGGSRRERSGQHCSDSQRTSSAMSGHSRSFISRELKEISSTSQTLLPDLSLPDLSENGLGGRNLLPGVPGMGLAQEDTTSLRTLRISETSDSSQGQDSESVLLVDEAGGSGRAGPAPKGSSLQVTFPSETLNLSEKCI", "assay": "Radioligand ([3H]PGE2) competition displacement binding, human EP4 receptor membranes", "conditions": "[3H]PGE2 displacement, read-out: pKi EP4 (converted)", "protocol": "as §1, §2, §3, §4"}, "[4]": {"system": "IL-2 production by OKT3 activated T cells", "assay": "Lymphocyte assay: IL-2 production by anti-CD3 (OKT3) stimulated T cells", "format": "cell-based, human", "conditions": "Homo sapiens, T-cell, 24 h, inhibition of IL-2 production", "excerpt": "(§5) Lymphocytes are mononuclear leukocytes, which participate in specific immune responses to foreign antigens and in the manifestation of auto-immune diseases. T lymphocytes produce IL-2, a key factor for lymphocyte activation and proliferation, in response to antigen stimulation via the CD3-T cell receptor complex and the pathway involved in this response is the NF-AT. […] A lymphocyte assay was designed to model this response and to determine the effect of test compound on IL-2 production by anti-CD3-stimulated T cells isolated from peripheral blood. This assay uses a sub-optimal dose of an anti-CD3 monoclonal antibody (OKT3, 25 ng/ml) immobilised to a 96-well plate to stimulate a T cell response. The level of IL-2 released into the cell culture supernatants was quantified using a standard sandwich ELISA. Similarly, other cytokines such as TNFα and IFN-γ can also be measured in the same assay.\n(§6) Human peripheral blood mononuclear cells from healthy volunteers were isolated from whole blood by Ficoll-Hypaque density centrifugation and adherence to plastic. The non-adherent lymphocyte fraction was used to set up the lymphocyte assay and the adherent monocytes were then recovered by scraping and subsequently used in the monocyte assay.\n(§7) Lymphocytes were then seeded to a 96-well plate pre-coated with anti-CD3 monoclonal antibody (OKT3) at 25 ng/ml and immediately, the test compounds (Peak 1, mixture 1 acid; Peak 1, mixture 2 acid; AH-13205 racemate; PGE2) in appropriate dilutions were added to corresponding wells according to the experimental design. The plate was incubated for 24 hours at 37° C. with 5% CO2 in air and supernatants were recovered for ELISA analysis at the end of incubation period. The levels of IFN-γ was assessed by using the ProteoPlex 16 well human cytokine array assay kit according to the manufacturer's instruction."}, "[5]": {"system": "interferon gamma release by lymphocytes", "assay": "Lymphocyte assay: interferon gamma release", "format": "cell-based, human", "conditions": "two donors (FIG. 11)", "excerpt": "as §5, with “assay. […]” for “assay.”\nas §7, with “The plate was incubated for 24 hours at 37° C. with 5% CO2 in air and supernatants were recovered for ELISA analysis at the end of incubation period.” left out"}, "[6]": {"system": "TNFα production by lymphocytes", "assay": "Lymphocyte assay: TNFα production", "format": "cell-based, human", "conditions": "Homo sapiens, Lymphocyte, inhibition of TNFα production by lymphocytes, mean of three donors", "excerpt": "as §5, §6, §7"}, "[7]": {"system": "lymphocyte proliferation", "assay": "Lymphocyte proliferation driven by immobilised anti-CD3 antibody", "format": "cell-based, human", "conditions": "Homo sapiens, inhibition of lymphocyte proliferation, 72 h, mean of three donors", "excerpt": "as §5, §6\nFor the measurement of lymphocyte proliferation driven by immobilised anti-CD3 monoclonal antibody, the assay was set up in the same way as for the measurement of IL-2 release, except that the cells were cultured for 72 hours in the presence or absence of test compounds. Four hours prior to the termination of the proliferation assay, a novel tetrazolium compound solution supplied by Promega in the format of Cell Proliferation Assay Kit was added to individual wells according to the manufacturer's instruction. The plate was then placed back in the incubator for the remaining 4 hours and the […] reaction was measured using a spectrophotometer at an absorbent wavelength of 490 nm (SpectraMax, Molecular Devices) according to the manufacturer's instruction."}, "[8]": {"conditions": "mean of four donors (FIG. 9, table 7), read-out: Mean EC50"}, "[9]": {"conditions": "log scale, mean of four donors (FIG. 9, table 7), read-out: Mean Log (EC50) (converted)"}, "[10]": {"conditions": "log scale, read-out: Mean Log (EC50) (converted)"}}, "note": "Like-named read-outs stand apart in the source and are kept apart here."}
{"molecule": "CCCCCC(O)c1ccc(C2CCC(=O)C2CCCCCCC(=O)O)cc1", "note": "(racemic) [AH13205, (±)-trans-2-[4-(1-hydroxyhexyl)phenyl]-5-oxo-cyclopentaneheptanoic acid, reference compound]", "values": [{"measurement": "Ki", "setting": "[1]", "value": 398, "unit": "nM"}, {"measurement": "Ki", "setting": "[2]", "value": 6310, "unit": "nM"}, {"measurement": "Ki", "setting": "[3]", "value": 25100, "unit": "nM"}, {"measurement": "EC50", "setting": "[4]; [8]", "value": 2820, "unit": "nM"}, {"measurement": "EC50", "setting": "[4]; [9]", "value": 2820, "unit": "nM"}]}
{"molecule": "CCCCC[C@H](O)c1ccc([C@H]2CCC(=O)[C@@H]2CCCCCCC(=O)O)cc1", "note": "(single isomer, unassigned) [Peak 1, Mixture 1 acid]", "values": [{"measurement": "Ki", "setting": "[1]", "value": 79.4, "unit": "nM"}, {"measurement": "Ki", "setting": "[2]", "value": 2000, "unit": "nM"}, {"measurement": "Ki", "setting": "[3]", "value": 10000, "unit": "nM"}, {"measurement": "EC50", "setting": "[4]; [8]", "value": 986, "unit": "nM"}, {"measurement": "EC50", "setting": "[4]; mean of three to five donors (FIG. 10, table 8), read-out: Mean EC50", "value": 1320, "unit": "nM"}, {"measurement": "EC50", "setting": "[4]; [9]", "value": 986, "unit": "nM"}, {"measurement": "EC50", "setting": "[4]; log scale, mean of three to five donors (FIG. 10, table 8), read-out: Mean Log (EC50) (converted)", "value": 1320, "unit": "nM"}, {"measurement": "interferon gamma release", "setting": "[5]", "value": "concentration-dependently inhibit interferon gamma release"}, {"measurement": "EC50", "setting": "[6]; read-out: Mean EC50", "value": 2330, "unit": "nM"}, {"measurement": "EC50", "setting": "[6]; [10]", "value": 2330, "unit": "nM"}, {"measurement": "EC50", "setting": "[7]; read-out: Mean EC50", "value": 10000, "unit": "nM"}, {"measurement": "EC50", "setting": "[7]; [10]", "value": 10000, "unit": "nM"}]}
{"molecule": "CCCCC[C@@H](O)c1ccc([C@H]2CCC(=O)[C@@H]2CCCCCCC(=O)O)cc1", "note": "(single isomer, unassigned) [Peak 1, Mixture 2 acid]", "values": [{"measurement": "selectivity for EP2 over other EP receptors (from table 5)", "setting": "[1]; comparison among the stereoisomers", "value": "most selective"}, {"measurement": "Ki", "setting": "[1]", "value": 126, "unit": "nM"}, {"measurement": "Ki", "setting": "[2]", "value": 15800, "unit": "nM"}, {"measurement": "Ki", "setting": "[3]", "value": 7940, "unit": "nM"}]}
